In PMC5426640, “A novel multifunctional peptide oligomer of bacitracin with possible bioindustrial and therapeutic applications from a Korean food-source Bacillus strain” (PLoS ONE, 2017):
Converted amounts (≈) assume the structure as drawn. Where a SMILES comes first, the peptide text is derived from it. Bridges are numbered along the chain shown (N, C = ends). [ ]: non-standard residue; d: D form. The star is where a group is joined. Ileψ(thiazoline)Cys = CC[C@H](C)[C@H](N)C1=N[C@H](C(=O)*)CS1; dOrn = NCCC[C@@H](N)C(=O)O

Tests used:
[1] = tested on: VRE4; test: organism not typed; assay type: cell-based, enterococci; settings: 18 h
Description: (§1) This activity in terms of minimal inhibitory concentration (MIC) was determined by dilution and disk diffusion methods as per the Clinical and Laboratory Standards Institute (CLSI) guidelines for antimicrobial susceptibility testing. The examination of bacteria was conducted after incubation for 18 h at 37°C following inoculation of various test microorganisms, including methicillin-resistant Staphylococcus aureus (MRSA), vancomycin-resistant S. aureus (VRSA), or vancomycin-resistant enterococci (VRE). Control antibiotics were bacitracin and vancomycin.

[2] = tested on: VRE3; test: organism not typed; assay type: cell-based, enterococci; settings: 18 h
Description: as §1

[3] = tested on: VRE82; test: organism not typed; assay type: cell-based, enterococci; settings: 18 h
Description: as §1

[4] = tested on: VRE89; test: organism not typed; assay type: cell-based, enterococci; settings: 18 h
Description: as §1

[5] = tested on: VRE6; test: organism not typed; assay type: cell-based, enterococci; settings: 18 h
Description: as §1

[6] = tested on: VRE5; test: organism not typed; assay type: cell-based, enterococci; settings: 18 h
Description: as §1

[7] = tested on: VRE 2; test: microbe, parasite or virus in culture; assay type: cell-based, enterococci; settings: 18 h
Description: as §1

[8] = tested on: VRSA; test: microbe, parasite or virus in culture; assay type: cell-based, S. aureus; settings: 18 h
Description: as §1

[9] = tested on: MSRA S1; test: microbe, parasite or virus in culture; assay type: cell-based, Staphylococcus aureus; settings: 18 h
Description: as §1

[10] = tested on: MRSA S3; test: microbe, parasite or virus in culture; assay type: cell-based, Staphylococcus aureus
Description: as §1

[11] = tested on: MRSA 5–3; test: microbe, parasite or virus in culture; assay type: cell-based, Staphylococcus aureus
Description: as §1

[12] = tested on: MRSA 4–5; test: microbe, parasite or virus in culture; assay type: cell-based, Staphylococcus aureus
Description: as §1

[13] = tested on: MRSA 639E; test: microbe, parasite or virus in culture; assay type: cell-based, Staphylococcus aureus; settings: 18 h
Description: as §1

[14] = tested on: MRSA U4; test: microbe, parasite or virus in culture; assay type: cell-based, Staphylococcus aureus
Description: as §1

[15] = tested on: MRSA P3; test: microbe, parasite or virus in culture; assay type: cell-based, Staphylococcus aureus
Description: as §1

[16] = tested on: Listeria monocytogenes KCTC3569; test: microbe, parasite or virus in culture; assay type: cell-based; settings: KCTC3569, 18 h
Description: as §1

[17] = tested on: Micrococcus luteus ATCC 9341; test: microbe, parasite or virus in culture; assay type: cell-based
Description: as §1

[18] = tested on: Alcaligenes faecalis ATCC 1004; test: microbe, parasite or virus in culture; assay type: cell-based
Description: as §1

[19] = tested on: Salmonella typhimurium KCTC 1925; test: microbe, parasite or virus in culture; assay type: cell-based
Description: as §1

[20] = tested on: Mycobacterium smegmatis ATCC 9341; test: microbe, parasite or virus in culture; assay type: cell-based; settings: ATCC 9341, 18 h
Description: as §1

[21] = tested on: Pseudomonas aeruginosa KCTC 1637; assay type: cell-based; settings: KCTC 1637, 18 h
Description: as §1

[22] = tested on: Staphylococcus aureus KCTC 1928; assay type: cell-based; settings: KCTC 1928, 18 h
Description: as §1

[23] = tested on: Bacillus subtilis ATCC 6633; assay type: cell-based; settings: ATCC 6633, 18 h
Description: as §1

[24] = tested on: Escherichia coli KCTC 1923; assay type: cell-based; settings: KCTC 1923, 18 h
Description: as §1

[25] = tested on: Enterococcus faecalis ATCC 29212; assay type: cell-based; settings: ATCC 29212, 18 h
Description: as §1

[26] = tested on: Clostridium difficile KCTC2251; test: Antimicrobial activity against anaerobic pathogens (mm); assay type: cell-based; settings: 48 h, mean ± SD, n = 3
[27] = tested on: Propionibacterium acnes KCTC5933; test: as above; assay type: cell-based; settings: 48 h, mean ± SD, n = 3
[28] = tested on: RAW 264.7 cells; test: Cell viability, MTT assay; assay type: cell-based, mouse; settings: 5–100 μg/mL, 24 h; three independent experiments in triplicate
Description: Cell viability was assessed using the 3-(4,5-dimethylthiazol-2-yl)-2,5-diphenyltetrazolium bromide (MTT) assay as described previously by Choi et al. (2016). For the cell viability assay, RAW 264.7 cells were seeded into a 96-well flat bottom microplate at a density of 2 × 10^4 cells per well and incubated at 37°C for 1 h. […] After 24 h of incubation, the medium was removed and wash in PBS once followed by 100 μl of MTT (5 mg/ml in PBS) solution was added to each well, and the plate was incubated for another 1 h. Then 100 μl of DMSO (100%) was added to dissolve the formazan crystals. Absorbance values were then measured at 450 nm using a microplate reader (Victor3, PerkinElmer).

[29] = tested on: Mycobacterium smegmatis; test: microbe, parasite or virus in culture; assay type: cell-based; settings: Mycolicibacterium smegmatis, ATCC9341, 18 h
Description: as §1

[30] = Staphylococcus aureus, MRSA, 18 h

## CC[C@H](C)[C@H](N)C1=N[C@H](C(=O)N[C@@H](CC(C)C)C(=O)N[C@H](CCC(=O)O)C(=O)N[C@H](C(=O)N[C@H]2CCCCNC(=O)[C@H](CC(N)=O)NC(=O)[C@@H](CC(=O)O)NC(=O)[C@H](Cc3cnc[nH]3)NC(=O)[C@@H](Cc3ccccc3)NC(=O)[C@H]([C@@H](C)CC)NC(=O)[C@@H](CCCN)NC2=O)[C@@H](C)CC)CS1 [Bacitracin] ({Ileψ(thiazoline)Cys}-L[dE]IK[dOrn]I[dF]H[dD]N; lactam 4-C (inferred); N-terminus assumed)
[1]
  MIC: 5 µg/mL (≈ 3.51 µM)
[2]
  MIC: 20 µg/mL (≈ 14.1 µM)
[3]
  MIC: 40 µg/mL (≈ 28.1 µM)
[4]
  MIC: 40 µg/mL (≈ 28.1 µM)
[5]
  MIC: >80 µg/mL
[6]
  MIC: 1.25 µg/mL (≈ 0.879 µM)
[7]
  MIC: 0.3125 µg/mL (≈ 0.22 µM)
[8]
  MIC: >80 µg/mL
[9]
  MIC: 1.25 µg/mL (≈ 0.879 µM)
[10]; S3, 18 h
  MIC: 1.25 µg/mL (≈ 0.879 µM)
[11]; 5–3, 18 h
  MIC: 1.25 µg/mL (≈ 0.879 µM)
[12]; 4–5, 18 h
  MIC: 1.25 µg/mL (≈ 0.879 µM)
[13]; 639E
  MIC: 40 µg/mL (≈ 28.1 µM)
[14]; U4, 18 h
  MIC: 1.25 µg/mL (≈ 0.879 µM)
[15]; P3, 18 h
  MIC: 1.25 µg/mL (≈ 0.879 µM)
[16]
  MIC: 0.3125 µg/mL (≈ 0.22 µM)
[17]; ATCC 9341, 18 h
  MIC: >80 µg/mL
[18]; ATCC 1004, 18 h
  MIC: >80 µg/mL
[19]; KCTC 1925, 18 h
  MIC: >80 µg/mL
[20]
  MIC: >80 µg/mL
[21]
  MIC: >80 µg/mL
[22]
  MIC: 40 µg/mL (≈ 28.1 µM)
[23]
  MIC: 40 µg/mL (≈ 28.1 µM)
[24]
  MIC: >80 µg/mL
[25]
  MIC: 5 µg/mL (≈ 3.51 µM)

## CC[C@@]1([C@@H]2O[C@@H]([C@H]3O[C@@](O)(CO)[C@H](C)C[C@@H]3C)C[C@@H]2C)CC[C@H]([C@]2(C)CC[C@]3(C[C@H](O)[C@@H](C)[C@@H]([C@@H](C)[C@@H](OC)[C@H](C)C(=O)O)O3)O2)O1 [Monensin]
[26]; concentration 0.125 mg/mL
  Antimicrobial activity, Clostridium difficile (mm): 13.17±0.29 mm
[26]; concentration 0.25 mg/mL
  Antimicrobial activity, Clostridium difficile (mm): 13.00±0.50 mm
[26]; concentration 0.5 mg/mL
  Antimicrobial activity, Clostridium difficile (mm): 15.17±0.29 mm
[26]; concentration 1 mg/mL
  Antimicrobial activity, Clostridium difficile (mm): 17.33±0.29 mm
[27]; concentration 0.125 mg/mL
  Antimicrobial activity, Propionibacterium acnes (mm): 13.00±0.50 mm
[27]; concentration 0.25 mg/mL
  Antimicrobial activity, Propionibacterium acnes (mm): 15.17±0.29 mm
[27]; concentration 0.5 mg/mL
  Antimicrobial activity, Propionibacterium acnes (mm): 17.33±0.58 mm
[27]; concentration 1 mg/mL
  Antimicrobial activity, Propionibacterium acnes (mm): 17.17±0.29 mm

## CC[C@H](C)[C@H](N)C1=N[C@H](C(=O)N[C@@H](CC(C)C)C(=O)N[C@H](CCC(=O)O)C(=O)N[C@H](C(=O)N[C@H]2CCCCNC(=O)[C@H](CC(N)=O)NC(=O)[C@@H](CC(=O)O)NC(=O)[C@H](Cc3cnc[nH]3)NC(=O)[C@@H](Cc3ccccc3)NC(=O)[C@H]([C@@H](C)CC)NC(=O)[C@@H](CCCN)NC2=O)[C@@H](C)CC)CS1 [CSP32] ({Ileψ(thiazoline)Cys}-L[dE]IK[dOrn]I[dF]H[dD]N; lactam 4-C)
[28]
  Cytotoxicity toward RAW 264.7 cells (MTT): did not exert cytotoxicity

## CN[C@H](CC(C)C)C(=O)N[C@H]1C(=O)N[C@@H](CC(N)=O)C(=O)N[C@H]2C(=O)N[C@H]3C(=O)N[C@H](C(=O)N[C@H](C(=O)O)c4cc(O)cc(O)c4-c4cc3ccc4O)[C@H](O)c3ccc(c(Cl)c3)Oc3cc2cc(c3O[C@@H]2O[C@H](CO)[C@@H](O)[C@H](O)[C@H]2O[C@H]2C[C@](C)(N)[C@H](O)[C@H](C)O2)Oc2ccc(cc2Cl)[C@H]1O [Vancomycin]
[1]
  MIC: > 80 µg/mL
[2]
  MIC: > 80 µg/mL
[3]
  MIC: > 80 µg/mL
[4]
  MIC: > 80 µg/mL
[5]
  MIC: > 80 µg/mL
[6]
  MIC: > 80 µg/mL
[7]; Enterococcus, VRE
  MIC: > 80 µg/mL
[8]; Staphylococcus aureus, VRSA
  MIC: > 80 µg/mL
[9]; Staphylococcus aureus
  MIC: 0.625 µg/mL (≈ 0.431 µM)
[10]; [30]
  MIC: 0.312 µg/mL (≈ 0.216 µM)
[11]; [30]
  MIC: 0.312 µg/mL (≈ 0.216 µM)
[12]; [30]
  MIC: 0.312 µg/mL (≈ 0.216 µM)
[13]; Staphylococcus aureus, MRSA
  MIC: 0.312 µg/mL (≈ 0.216 µM)
[14]; [30]
  MIC: 0.312 µg/mL (≈ 0.216 µM)
[15]; [30]
  MIC: 0.625 µg/mL (≈ 0.431 µM)
[16]; Listeria monocytogenes
  MIC: 0.156 µg/mL (≈ 0.108 µM)
[29]
  MIC: 0.312 µg/mL (≈ 0.216 µM)
[17]; Micrococcus luteus, ATCC9341, 18 h
  MIC: 0.156 µg/mL (≈ 0.108 µM)
[18]; Alcaligenes faecalis, ATCC1004, 18 h
  MIC: > 80 µg/mL
[19]; Salmonella enterica, 18 h
  MIC: > 80 µg/mL
